Data set [1] concerns HL-60 cells. As to the kind of experiment: Ultrasound-induced cytolysis of HL-60 cells, Coulter counter analysis. In kind it is cell-based. The following applies: for concentration giving complete (approximately 100%) protection from ultrasound induced cytolysis / effect on ultrasound induced cytolysis (% cytolysis): 1.057 MHz (1 MHz), 10 W; for concentration giving complete (approximately 100%) protection from ultrasound induced cytolysis / effect on ultrasound induced cytolysis (% cytolysis) / effect on ultrasound induced cytolysis: 5 s; for concentration giving complete (approximately 100%) protection from ultrasound induced cytolysis: air exposed; for cells protected from immediate cytolysis: 7 mM HGP; for change of protection from cytolysis as frequency is decreased: frequency decreased from 1 MHz to 42 kHz. The protocol: Cells: HL-60 myeloid leukemia cells (American Type Culture Collection) were grown in a suspension of RPMI 1640 medium (GIBCO, Gaithersburg, Md.) containing 10% calf serum. The population of HL-60 cells doubled every 23±1 hr (hour ±SEM) when incubated at 37° C. in a CO2 (5%) containing atmosphere. Cells were harvested, re-suspended in fresh RPMI medium and kept at 25° C. until the start of the experiment (typically less than 1 hr). […] The fraction of intact cells before and after ultrasound was determined using a Coulter multisizer (model IIe) connected to a sampling stand (model IIa). The number of intact cells was determined by counting the total number of particles under the bell shaped curve (e.g., FIG. 1a) before and following sonolysis. The cytolysis percentage was determined by subtracting the number of intact cells following sonolysis from the number of intact cells before sonolysis. This value was divided by the number of intact cells before sonolysis and multiplied by 100 to obtain the cytolysis percentage value.
The temperature of the coupling water was 25° C.
We have confirmed the validity of this technique for studying the effects of sonolysis in our ultrasound system by the trypan blue exclusion assay. The mean size of HL-60 cells was determined from the Coulter counter results prior to sonolysis and was approximately 650 μm3 (FIG. 1a) which equates to a mean cell diameter of […].
42 kHz sonolysis was conducted in a similar way but using a Branson ultrasound bath (model number 1510). […] At 42 kHz, a transducer was used to decrease the power of the bath to 50% of its original value. The temperature of the coupling water at all frequencies was 25° C.
The percentage of cytolysis of HL-60 cells was determined by measurement of the cell size distribution using a Coulter multisizer. This method correlates well with percentage cytolysis measured using the Trypan blue exclusion assay immediately following sonolysis and is explained in detail elsewhere (Miyoshi, N. et al. 2003). […] This immediate ultrasound induced cytolysis (i.e., % cytolysis) is represented in FIGS. 2, 10-12 at a concentration of zero.
42 kHz sonolysis was conducted in a similar way but using a Branson ultrasound bath (model number […]). […] At 42 kHz, a transducer was used to decrease the power of the bath to 50% of its original value. The temperature of the coupling water at all frequencies was 25° C.
The percentage of cytolysis of HL-60 cells was determined by measurement of the cell size distribution using a Coulter multisizer. This method correlates well with percentage cytolysis measured using the Trypan blue exclusion assay immediately following sonolysis and is explained in detail elsewhere (Miyoshi, N. et al. 2003). […] This immediate ultrasound induced cytolysis (i.e., % cytolysis) is represented at a concentration of zero.

The subject of data set [2] is HL-60 cells.
Method: (§1) Cell experiments were completed within 5 to 10 minutes of adding the glucopyranosides to the cell suspensions, and each data point represents an average ±SEM, where n=5 to 8. […] For this reason, we only studied the effects of MGP, HGP, HepGP and OGP on the ultrasound induced cytolysis of HL-60 cells.
The subject of data set [3] is HL-60 cells. In words: Exposure of HL-60 cells to glucopyranosides alone (no ultrasound). The following applies: 15 minute exposure at highest concentrations used.
Method: as §1
Data set [4] has as its system HL-60 cells. In words: Reproduction assay of HL-60 cells following sonolysis. Type of data set: cell-based. The following applies: for reproduction ratio one or two days post treatment: 7 mM HGP; for reproductive viability (reproduction fraction) over 24 hours after sonolysis: 5 seconds, 10 W, varying concentrations. The protocol:
Cells were allowed to reproduce for 24 hours. Reproduction fraction ±SD (where n=6 to 8) is calculated by dividing the number of cells counted following 24 hours of reproduction by the number of cells counted at the start of incubation.
Control data points were run in triplicate with a standard deviation of less than 10%. Sonolysis points represent an average of six separate cell suspensions, with a standard deviation of less than 10%.
The reproduction ratio is the number of cells present one or two days post treatment divided by the number of cells present on the treatment day.
Reproduction Assay: for FIG. 5, a reproduction assay was conducted over a period of 10 days to determine the long term viability of cells following ultrasound treatment in the presence of either HGP or OGP at concentrations where 100% protection from cytolysis occurred. The long term viability of treated cell suspensions was compared to the long term viability of untreated control cell suspensions held under exactly the same conditions (FIG. 5). Immediately following sonolysis, a 100 μl aliquot of the 1 ml treated (or control) samples was used for Coulter counter analysis in order to confirm that 100% of the cells had survived the ultrasound treatment. Viability of the cells was determined by using a very small volume (approx. 20 μl) of suspension for trypan blue staining. The remaining ≈0.9 ml cell suspensions were diluted to 3 ml with fresh medium, centrifuged, washed with fresh medium, and finally re-suspended in fresh medium (2 ml). 100 μl of this new 2 ml of cells suspended in fresh medium was then used to determine the cell concentration. This cell concentration is defined as ‘the cell concentration at Day 0 after ultrasound treatment’ (Ci). Cell suspensions were then kept at 37° C. in a 5% CO2 incubator for a total of 10 days.
Over the 10 day period, cells had to be spun down occasionally and re-suspended in fresh medium to replenish the nutrients necessary for a healthy cell population. 100 μl aliquots of the original cell suspension were used to measure the cell concentration both before (Cfinal) and following (Cinitial) re-suspension in fresh medium. This procedure, although necessary, results in a slight underestimation in the expected number of cells on any given day, when compared to the original cell concentration, Ci. To account for this small, but significant underestimation, we calculated the actual number of cells that would have been observed had we not been periodically extracting small aliquots for the detection of cell numbers by the Coulter counter. This was done by calculating a ‘reproduction ratio’, determined by dividing Cfinal by Cinitial that was measured one or two days earlier and comparing this ratio to (Ci), to give a ‘real cell population’. It should be noted that this calculation is done simply as a matter of convenience and that the reproduction ability of the treated samples was compared to control samples that were treated in the same way over the day period, as shown in FIG. 5. Verification of this method is given by the fact that the cells of the control samples double approximately every day (FIG. 5), as expected for HL-60 cells under the conditions of incubation in the current study.

Data set [5] has as its system HL-60 cells. As to the kind of experiment: Mechanical fragility test (Burrell wrist action shaker, glass beads), HL-60 cells. The following applies: for protection from mechanical induced cytolysis: 30 min shaking, 50% power, HGP 1-10 mM, HepGP 0.1-10 mM, MGP 10-30 mM, OGP 0.3-3 mM. In kind it is cell-based. As for the experimental part: 10 ml borosilicate glass beads in a 125 ml conical flask. 10 ml cell suspension in the presence and absence (control) of various glucopyranosides (HGP, HepGP, MGP, and OGP) in a cell culture medium containing 10% DPBS solution. Shaking was conducted over a period of 30 minutes. Each data point represents ±SD, where n=5.
Mechanical Fragility Test: the effect of glucopyranosides on the mechanical fragility of the cells was determined by inducing mechanical shear stress to a cell suspension. This involved placing 10 mL of HL-60 cells in suspension in 125 ml sized screw capped conical flasks containing 10 mL of borosilicate solid-glass beads (Sigma-Aldrich, mean particle diameter of 3 mm), similar to the methods described elsewhere (Carstensen, E. L. et al. 1993; Miller, M. W. et al. 2003). The samples were then shaken in a Burrell wrist action shaker (model number 75, Burrell Scientific, Pittsburgh, Pa.) at 50% power for a duration of 30 minutes. Using this method, up to eight sample solutions could be run at one time. […] In samples containing glucopyranosides, the surfactant was dissolved in 1 ml of DPBS and added to 9 ml of the cell suspension.

Data set [6] has as its system HL-525 cells. As to the kind of experiment: Sonolysis of HL-525 cells, % cytolysis. Type of data set: cell-based. The following applies: 1 MHz (1057 kHz), 10 W, 5 sec. As for the experimental part:
Conditions: 42 kHz, 50% power, 5 sec, 20° C., % cytolysis ±SD (n=6).
Conditions: 354 kHz, 15 W, 5 sec, 20° C., % cytolysis ±SD (n=6).
Conditions: 614 kHz, 20 W, 5 sec, 20° C., % cytolysis ±SD (n=6).
Conditions: 1057 kHz, 10 W, 5 sec, 20° C., % cytolysis ±SD (n=6).

Entries after “also recorded” stand apart in the source; their conditions may differ.

As to `CCCCCCCNC(=O)OC[C@H]1O[C@H](OC)[C@H](O)[C@@H](O)[C@@H]1O` [ANAMEG-7, methyl-6-O—(N-heptylcarbamoyl)-α-D-glucopyranoside], the “concentration giving complete (approximately 100%) protection from ultrasound induced cytolysis” value in data set [1] (HL-60 cells) was 3 mM.

As for `OC[C@H]1O[C@@H](OCCCC2CCCCC2)[C@H](O)[C@@H](O)[C@@H]1O` [Cyglu-3, 3-cyclohexyl-1-propyl-β-D-glucoside], in data set [1] (HL-60 cells), the “concentration giving complete (approximately 100%) protection from ultrasound induced cytolysis” value is 5 mM.

For the compound `CCCCCCCCCCO[C@@H]1O[C@H](CO)[C@@H](O)[C@H](O)[C@H]1O` [DGP, decyl-β-D-Glucopyranoside], the “lysis of cells on exposure (Coulter counter, trypan blue)” value in data set [2] is “immediate lysis of a large population of cells”.

Take `CCCCCCO[C@@H]1O[C@H](CO)[C@@H](O)[C@H](O)[C@H]1O` [HGP, hexyl-β-D-Glucopyranoside]: in data set [3], the “effect on reproduction rate of the cells over 120 hours” value (shortened to “effect … over 120 hours”) is listed as “no detrimental effect”. The “reproduction ratio one or two days post treatment” value in data set [4] (354 kHz) and in data set [4] (614 kHz) was “continue to reproduce at the same rate” in each case. Besides, in data set [4] (HGP 5 mM, 1.057 MHz, 15 seconds, 40 W and 60 W), the “reproduction of treated cells over 10 days” value is “continue to reproduce at a rate comparable to that of untreated control cells”. In addition, the “reproductive viability (reproduction fraction) over 24 hours after sonolysis” value in data set [4] is reported as “continue to reproduce at the same rate as untreated control samples”. Moreover, the “protection from mechanical induced cytolysis” value in data set [5] was “none of the glucopyranosides tested”. In addition, the “cells protected from immediate cytolysis” value in data set [1] (354 kHz) and in data set [1] (614 kHz) was 100% in each case. The ultrasound induced cytolysis result in data set [1] (HGP 5 mM, 1.057 MHz, 15 seconds, 30 W) is given as “eliminated”. Also, the “protection from sonolysis under a range of ultrasound intensities and exposure times” value in data set [1] (HGP 5 mM, 1.057 MHz, extreme conditions with almost 100% cytolysis without HGP) was “could protect cells from cytolysis even during extreme conditions of sonolysis”. Further, the “effect on ultrasound induced cytolysis (% cytolysis)” value (“effect … (% cytolysis)” for short) in data set [1] (HL-60 cells) was “fully protects”. Also, the “effect on ultrasound induced cytolysis” value in data set [1] (HL-60 cells, 42 kHz, 50% power) is “very small sonosensitization; also recorded: not at 42 kHz”; in data set [1] (HL-60 cells, 354 kHz, 15 W) it was “fully protects”; in data set [1] (HL-60 cells, 614 kHz, 20 W) it was “fully protects”. The “change of protection from cytolysis as frequency is decreased” value in data set [1] (HL-60 cells) is recorded as “less effective”.

Regarding `CCCCCCO[C@@H]1O[C@H](CO)[C@@H](O[C@H]2O[C@H](CO)[C@@H](O)[C@H](O)[C@H]2O)[C@H](O)[C@H]1O` [HMP, Hexyl-β-D maltopyranoside], the “concentration giving complete (approximately 100%) protection from ultrasound induced cytolysis” value in data set [1] (HL-60 cells) stood at 1 mM.

Consider `CCCCCCCO[C@@H]1O[C@H](CO)[C@@H](O)[C@H](O)[C@H]1O` [HepGP, heptyl-β-D-Glucopyranoside], for which the “effect … over 120 hours” value in data set [3] is “no detrimental effect”. Also, the “reproductive viability (reproduction fraction) over 24 hours after sonolysis” value in data set [4] was “continue to reproduce at the same rate as untreated control samples”. Further, in data set [5], the “protection from mechanical induced cytolysis” value is “none of the glucopyranosides tested”. Further, in data set [5] (relatively high concentrations), the “effect on cell membrane stability to mechanical shear stress” value is listed as “significant destabilization of the cell membrane to mechanical shear stress”. Also, in data set [1] (HL-60 cells), the “effect … (% cytolysis)” value was “fully protects”, the “concentration giving complete (approximately 100%) protection from ultrasound induced cytolysis” value is 3 mM and the “change of protection from cytolysis as frequency is decreased” value was “less effective”. In data set [1] (HL-60 cells, 42 kHz, 50% power), the “effect on ultrasound induced cytolysis” value is given as “very small sonosensitization”. In data set [1] (HL-60 cells, 614 kHz, 20 W), the “effect on ultrasound induced cytolysis” value is “fully protects”.

For the compound `CO[C@@H]1O[C@H](CO)[C@@H](O)[C@H](O)[C@H]1O` [MGP, Methyl-β-D-Glucopyranoside, reference compound], the “effect … over 120 hours” value in data set [3] is “no detrimental effect”. Moreover, the “protective effect for HL-525 cells compared to HL-60 cells” value in data set [6] is listed as “different protection effects”. Moreover, in data set [5], the “protection from mechanical induced cytolysis” value is “none of the glucopyranosides tested”. Further, the “effect … (% cytolysis)” value in data set [1] (HL-60 cells) is given as “no effect”. Moreover, in data set [1] (HL-60 cells, 42 kHz to 1 MHz, MGP 10 to 30 mM), the “effect on ultrasound induced cytolysis at any ultrasound frequency” value is “effectively has no effect”.

On to `CCCCCCCCO[C@H]1O[C@H](CO)[C@@H](O)[C@H](O)[C@H]1O` [alphaOGP, n-octyl-α-D-glucopyranoside], for which the “effect … (% cytolysis)” value in data set [1] (HL-60 cells) was “very slight protective effect”.

The values are drawn from patent US20080269163A1, “Methods and Compositions for Protecting Cells from Ultrasound-Mediated Cytolysis” (priority 2004, published 2008).
